Values joined by “and” are separate entries in the source; they are usually repeats but may differ in a detail not shown here. Equal entries are not always repeated.
Columns and labels:
[1] = DNDI: Cytotoxicity against human MRC-5 lung fibroblast cells.; conditions: IC50
[2] = tested on: Trypanosoma brucei brucei; assay: microbe, parasite or virus in culture; format: functional, organism-based, STIB 795
Description: DNDI: Inhibition of Human African Trypanosomiasis (HAT), STIB 795, in vitro

| Compound | IC50 [1] | IC50 ([2]; Trypanosoma brucei, STIB 795) | IC50 [2] |
| --- | --- | --- | --- |
| CCOc1ccc(C2=CC(C(C(C)=O)C(C)=O)c3ccccc3O2)cc1 (centres undefined) | > 41.7 µM | 4.42 µM | – |
| CC(C)Nc1ccc(Nc2ccnc3cc4ccccc4cc23)cc1 | > 41.7 µM | 2.58 µM | – |
| O=C(N/N=C/c1cc(Cl)ccc1O)c1ccc(F)cc1 | > 20.8 µM | ≤ 10.4 µM | – |
| N/C(=N\OC(=O)c1ccccc1Br)c1ccccc1 | > 20.8 µM | 2.66 µM | – |
| Cc1ccc2c(c1)OCC(CC(=O)NCCN(C)C)N2Cc1ccc(F)cc1 (centres undefined) | > 4.17 µM | 2.2 µM | – |
| Cc1nc2ncnn2c(Sc2ccccc2NC(=O)c2cccc(F)c2)c1C | > 20.8 µM | 1.66 µM | – |
| CN(C)CCCN(C)Cc1ccccc1Sc1ccc2ccccc2c1 | > 41.7 µM | 2.57 µM | – |
| Cc1c(C)c(C)c2c(CC(C)N)c[nH]c2c1C (centres undefined) | > 41.7 µM | 4.24 µM | – |
| CCOC(=O)c1cnc2c(OC)cccc2c1NCCCO | > 41.7 µM | 8.61 µM | – |
| COc1ccc(C(NC(=O)CC(C)C)c2ccc3cccnc3c2O)cc1OC (centres undefined) | 0.685 µM | 0.6 µM | – |
| Cc1ccc(O)c(/N=N/c2nnc[nH]2)c1 | > 10.4 µM | 0.404 µM | – |
| COC(=O)c1ccc2c(c1)C(C)(C)C(/C=C/c1c(C)[nH]c3ccccc13)=[N+]2C | > 4.17 µM | 2.97 µM | – |
| NCCNCCC=C(c1ccc(F)cc1)c1ccc(F)cc1 | > 20.8 µM | 0.265 µM | – |
| CS(=O)(=O)c1cccc(C(=O)Nc2nc(-c3ccccn3)cs2)c1 | > 10.4 µM | 0.498 µM | – |
| CNC1=C(N(C(C)=O)c2ccc(Br)cc2)C(=O)c2ccccc2C1=O | 4.88 µM | 0.515 µM | – |
| Cc1cc(-c2ccco2)c(C#N)c(SCC(=O)c2ccc(O)c(O)c2)n1 | > 41.7 µM | 0.791 µM | 0.756 µM |
| C(=C\c1ccc(OC2CN3CCC2CC3)cc1)/c1ccccc1 (centres undefined) | > 41.7 µM | 5.31 µM | – |
| CCCCN1/C(=C/c2cc[n+](CC)c3ccccc23)C=Cc2cc(C)ccc21 | > 10.4 µM | 0.831 µM | – |
| CC1CC2=C(C(=O)c3ccccc3C2=O)C(C)O1 (centres undefined) | > 41.7 µM | 5.59 µM | – |
| CCC1CO/C(=C2\Sc3ccccc3C2=O)N1 (centres undefined) | > 20.8 µM | 5.08 µM | – |
| O=C1c2ccccc2C(=O)c2c1ccc1nonc21 | > 20.8 µM | 0.394 µM | – |
| NCC12CC3CC(C1)CC(c1ccc(Br)cc1)(C3)C2 | 6.72 µM | 0.687 µM | – |
| COc1ccc(N2C(=O)CN(Cc3sccc3C)C2=S)cc1Cl | > 41.7 µM | 4.94 µM | – |
| Cn1c(=N)n(CC(=O)c2cc(C(C)(C)C)c(O)c(C(C)(C)C)c2)c2ccccc21 | > 20.8 µM | 4.57 µM | 2.62 µM |

| Compound | IC50 [1] | IC50 ([2]; Trypanosoma brucei, STIB 795) | IC50 [2] |
| --- | --- | --- | --- |
| Oc1cccc2ccc(CNC3CC3)nc12 | > 20.8 µM | 5.36 µM | – |
| CC[n+]1c(/C=C2\Sc3cc(NC(C)=O)ccc3N2C)ccc2ccccc21 | > 41.7 µM | 5.41 µM | – |
| CCCCNCc1cc(Br)c(OCc2ccc(F)cc2)c(OC)c1 | > 41.7 µM | 4 µM | – |
| COc1cc(CNCCO)cc(Br)c1OCc1ccccc1 | > 41.7 µM | 4.73 µM | – |
| COCCN1CSC(=S)N(Cc2ccco2)C1 | > 4.17 µM | 4.84 µM | – |
| Cc1ccc(NCC(=O)N/N=C/c2c(C)cc(O)cc2O)cc1 | > 20.8 µM | 5.37 µM | – |
| Cc1oc2c(O)c(O)ccc2c(=O)c1Oc1ccccc1F | > 41.7 µM | 0.133 µM | – |
| CC[n+]1c(/C=C/c2ccc(N(C)C)cc2)ccn1-c1ccccc1 | > 20.8 µM | 0.536 µM | – |
| NC1=C(Cl)C(=O)c2ccccc2C1=O | > 41.7 µM | 2.44 µM | – |
| O=c1nc2oc3ccc4ccccc4c3cc-2c(=O)[nH]1 | > 20.8 µM | 5.06 µM | – |
| O=C(NCCc1csc(-c2ccc(F)cc2)n1)c1ccc(Br)o1 | > 41.7 µM | 4.66 µM | – |
| N/C(=N\OC(=O)c1cccs1)c1ccccc1Cl | > 20.8 µM | 0.766 µM | – |
| Cc1cc(C)c2c(N)c3cccc(C)c3nc2n1 | 0.9 µM | 0.35 µM | – |
| COc1ccc(C2(CCNCc3ccc(Cl)cc3)CCOC(C)(C)C2)cc1 (centres undefined) | > 41.7 µM | 7.61 µM | – |
| CCN(CC)CCNc1cc(C)nc2c1C(=O)C(=O)C=C2N1CCCCC1 | 6.25 µM | 4.07 µM | – |
| c1ccc2cc3c(NCCCNC4CCCCC4)ccnc3cc2c1 | 4.93 µM | 0.294 µM | – |
| O=C1c2cccc3c(N4CCOCC4)ccc(c23)C(=O)N1O | > 41.7 µM | 8.03 µM | – |
| O=C1c2ccccc2C(=O)c2c1ccc1c(=O)o[nH]c21 | > 41.7 µM | 4.64 µM | – |
| O=C(Nc1ccc(Cl)c(-c2nc3ncccc3o2)c1)c1ccco1 | > 41.7 µM | 0.17 µM | – |
| CC(C)(C)C(N)CCc1ccc(Cl)cc1Cl (centres undefined) | > 41.7 µM | 5.49 µM | – |
| CC(C)(C)c1ccc(Cn2c(=N)n(CCO)c3ccccc32)cc1 | > 41.7 µM | 4.96 µM | – |
| Cc1nc2sccn2c1C(=O)N/N=C/c1c(O)ccc2ccccc12 | > 4.17 µM | 1.53 µM | – |
| N/C(=N\OC(=O)C12CC3CC(CC(C3)C1)C2)c1ccccc1Cl | > 41.7 µM | 0.372 µM | – |
| Cc1cc(F)ccc1NC(=O)Nc1ccc(-c2noc(C3CCC3)n2)cc1 | > 41.7 µM | 4.73 µM | – |

| Compound | IC50 [1] | IC50 ([2]; Trypanosoma brucei, STIB 795) | IC50 [2] |
| --- | --- | --- | --- |
| CNCCC(Sc1ccc(C(F)(F)F)cc1)c1ccccc1 (centres undefined) | > 20.8 µM | 1.9 µM | – |
| Nc1ccsc1/C=C/c1cccs1 | > 41.7 µM | 5.05 µM | – |
| CCN1/C(=C/C=C/c2sc3c(C)cccc3[n+]2CC)Sc2c(C)cccc21 | > 20.8 µM | 0.501 µM | – |
| Cc1[nH]c2ccc(OC(F)(F)F)cc2c1CCNCC1CC=CCC1 (centres undefined) | 7.85 µM | 2.89 µM | – |
| Cc1cc(C)c2nc(C)cc(Nc3ccc(O)cc3)c2c1 | > 20.8 µM | 2.95 µM | – |
| CCc1ccc(/C=N\n2cnnc2)cc1 | > 41.7 µM | 0.647 µM | – |
| N=C(N)n1nc(-c2ccccc2)cc1-c1ccccc1O | > 20.8 µM | 5.07 µM | – |
| CC(C)(C)c1ccc2c(c1)OCCOCCOCCOCCO2 | > 20.8 µM | 5.26 µM | – |
| CCOC(=O)N1CCN(C2=C(NC(C)=O)C(=O)c3ccccc3C2=O)CC1 | > 41.7 µM | 5.36 µM | – |
| O=C(CC1(O)C(=O)Nc2ccc(Br)cc21)c1ccccc1F (centres undefined) | > 41.7 µM | 4.54 µM | – |
| COc1ccccc1C(=O)Nc1ccccc1Sc1cc(C)nc2ncnn12 | > 41.7 µM | 4.02 µM | – |
| N#Cc1ccccc1N=NNc1ccccc1C#N | > 41.7 µM | 5.08 µM | – |
| Brc1ccc(-c2nc(N3CCNCC3)c3ccccc3n2)cc1 | > 10.4 µM | 2.83 µM | – |
| CC(C)=CC1C(C(=O)O/N=C(\N)c2ccccc2)C1(C)C (centres undefined) | > 41.7 µM | 1.16 µM | – |
| O=C(CS(=O)(=O)c1ccc(F)cc1)Nc1nc(-c2ccccn2)cs1 | > 10.4 µM | 0.791 µM | – |
| CC[n+]1ccccc1/C=C1\C=Cc2cc(C)ccc2N1C | > 20.8 µM | 0.911 µM | – |
| CN1CCc2nc3sc(C(=O)c4ccc(F)cc4)c(N)c3cc2C1 | > 41.7 µM | 6.35 µM | – |
| COc1ccc2c(-c3ccccc3)cc(NCCCN(C)C)nc2c1 | > 20.8 µM | 3.67 µM | – |
| COCC(=O)N/N=C/c1ccc(SCC(=O)Nc2ccc3ccccc3c2)o1 | > 41.7 µM | 6.86 µM | – |
| Oc1nncc(N/N=C/c2ccccn2)n1 | > 20.8 µM | 5.64 µM | – |
| O=C(CC(SCc1ccco1)c1ccc(Cl)cc1)c1ccco1 (centres undefined) | > 41.7 µM | – | 5.16 µM and > 10.4 µM |
| O=c1c(Oc2ccccc2Br)coc2cc(O)ccc12 | > 41.7 µM | 4.46 µM | – |
| O=C(N/N=C/c1ccc(Cl)cc1Cl)c1ccc(O)c(O)c1 | > 20.8 µM | 1.54 µM | – |
| CN(C)CCCn1c(N)c(-c2nc3ccccc3[nH]2)c2nc(C#N)c(C#N)nc21 | > 41.7 µM | 4.08 µM | – |

| Compound | IC50 [1] | IC50 ([2]; Trypanosoma brucei, STIB 795) | IC50 [2] |
| --- | --- | --- | --- |
| Cc1cc(/C=N/n2cnnc2)c(C)n1-c1cccc(C(F)(F)F)c1 | > 41.7 µM | < 0.04 µM | – |
| CC1CCc2nc(SC3CC(=O)C4OCC3O4)nc(C(F)(F)F)c2C1 (centres undefined) | > 20.8 µM | 2.62 µM | – |
| Oc1ccc(Cn2cnc3ccccc32)c2cccnc12 | > 4.17 µM | 1.55 µM | – |
| CCOC(=O)c1ccc(NC(=O)Cn2c(C(F)(F)F)nc3ccccc32)cc1 | > 41.7 µM | 6.08 µM | 7.85 µM |
| COC(=O)N/N=C\c1ccc(-c2ccccc2Cl)o1 | > 41.7 µM | 1.95 µM | – |
| Cc1ccccc1/N=N/C(=N\Nc1ccccc1)c1ccccc1 | > 41.7 µM | 1.64 µM | – |
| COc1ccccc1C(=O)c1sc(Nc2ccc3c(c2)OCCO3)nc1N | > 1.04 µM | ≤ 1.08 µM | – |
| CC(C)C1N=C(c2ccc3c(c2)OCO3)CC(c2cc(Cl)ccc2O)N1 (centres undefined) | > 41.7 µM | 5.58 µM | – |
| COc1ccc(C/C(N)=N/OC(=O)c2cccs2)cc1OC | > 41.7 µM | 4.78 µM | – |
| O=C(c1ccc(F)cc1)C(CSc1ccc(F)cc1)n1cncn1 (centres undefined) | > 41.7 µM | 4.92 µM | – |
| NC(=O)c1ccc(Nc2ccccc2)[nH]c1=O | 5.28 µM | 5.52 µM | – |
| CN1C/C(=C/c2ccc(C#N)cc2)C(=O)/C(=C/c2ccc(C#N)cc2)C1 | > 20.8 µM | 0.366 µM | – |
| CCN1C=CC(=Cc2ccc3cc(C)ccc3[n+]2C)C=C1 | > 20.8 µM | 0.538 µM | – |
| COC(=O)C1=C(OC)C(=O)OC12C=CC(=O)C=C2 | 1.06 µM | 0.524 µM | – |
| COC(=O)c1c(SCC(=O)Nc2cccc(OC)c2)[nH]c2ccccc2c1=O | > 20.8 µM | 4.55 µM | – |
| COc1ccc(OCC(=O)N/N=C(\C)c2ccccn2)cc1 | > 20.8 µM | 5.26 µM | – |
| CCOc1c(Cl)cc(CNCCc2c[nH]c3ccccc23)cc1OC | > 41.7 µM | 5.09 µM | – |
| CN(C)CCn1c(=N)n(CC(O)c2ccc(Cl)c(Cl)c2)c2ccccc21 (centres undefined) | > 4.17 µM | 1.07 µM | – |
| CCN(CC)c1ccc(/C=N/NC(=O)c2ccncc2)c(O)c1 | > 4.17 µM | 3.82 µM | 7.34 µM |
| O=C(COc1ccc(Cl)cc1Cl)NO | > 20.8 µM | 0.921 µM | – |
| CC1(C)N=C(N)N=C(N)N1OCc1cccc(C2CCCCC2)c1 | > 41.7 µM | 4.68 µM | – |
| CC(C)(C)OC(=O)N1CCC[C@H]1c1nnc(SCc2cccc(Cl)c2)o1 | 2.87 µM | 0.538 µM | – |
| Cc1ccc(/C(=C\CCNCCN)c2ccccc2)cc1 | > 20.8 µM | 0.269 µM | – |
